Assay results from patent publication EP4813989A1, “CRYSTAL, PHARMACEUTICAL COMPOSITION, PREPARATION METHOD THEREFOR, AND USE THEREOF” (TYK Medicines, Inc., priority 2023, dated 2025).

Experiments:
Assay type in all cases: physicochemical
[1] = Solid form stability on standing (XRD/PLM)
Text: The resulting solid sample was subjected to a corresponding characterization test. An XRD pattern of the sample can be seen in FIG. 8.
A crystal form E sample was obtained by suspending and stirring the amorphous sample prepared in Example 2 in a 1,4-dioxane/n-heptane solvent system at room temperature. XRD results of the sample can be seen in FIG. 9. […] On this basis, it was inferred that the crystal form E was a metastable crystal form.
XRD results of the sample can be seen in FIG. 17.
XRD results of the sample can be seen in FIG. 20. TGA/DSC results can be seen in FIG. 21. […] An ^1H NMR spectrum of the crystal form D was obtained by a test in DMSO-d6, and no obvious solvent residue was observed. […] Based on nuclear magnetic resonance data and heating test results of the sample, it was inferred that the crystal form D was a hydrate crystal form.

[2] = High-temperature test, related substances by HPLC; conditions: for Increase of impurity RRT0.66 content / Increase of impurity RRT1.02 content / Increase of impurity RRT1.08 content / Increase of total impurities / Impurity content RRT0.55 / Impurity content RRT0.66 / Impurity content RRT0.71 / Impurity content RRT0.94 / Impurity content RRT1.02 / Impurity content RRT1.06 / Impurity content RRT1.08 / Impurity content RRT1.15 / Total impurities: 50°C±2°C; for Impurity content RRT0.55 / Impurity content RRT0.66 / Impurity content RRT0.71 / Impurity content RRT0.94 / Impurity content RRT1.02 / Impurity content RRT1.06 / Impurity content RRT1.08 / Impurity content RRT1.15 / Total impurities: open
Method: An investigation method for the high-temperature test can be seen in Table 11 below.
Results of related substances in each crystal form under the high-temperature condition (50°C±2°C) can be seen in Table 15.
HPLC detection results of related substances under the high-temperature condition: Table 15

[3] = Approximate solubility in organic solvents at room temperature

C[C@@H](Nc1ccn2ncc(C3=NOC(C)(C)N3)c2n1)c1cc(F)cc(F)c1F [amorphous form]
Solid form stability ([1]; ambient conditions (room temperature, >20%RH), overnight plus two days): unstable under ambient conditions

C[C@@H](Nc1ccn2ncc(C3=NOC(C)(C)N3)c2n1)c1cc(F)cc(F)c1F [crystal form A]
Increase of impurity RRT0.66 content ([2]; 32 days): ≤ 0.02% | Increase of impurity RRT1.02 content ([2]; 32 days): no obvious change | Increase of impurity RRT1.08 content ([2]; 32 days): 0.05% | Increase of total impurities ([2]; 32 days): 0.16% | Impurity content RRT0.55 ([2]; 0 day): 0.03% | Impurity content RRT0.66 ([2]; 0 day): 0.18% | Impurity content RRT0.71 ([2]; 0 day): 0.15% | Impurity content RRT0.94 ([2]; 0 day): 0.04% | Impurity content RRT1.02 ([2]; 0 day): 0.28% | Impurity content RRT1.06 ([2]; 0 day): 0.07% | Impurity content RRT1.08 ([2]; 0 day): 0.16% | Impurity content RRT1.15 ([2]; 0 day): 0.03% | Total impurities ([2]; 0 day): 0.95% | Impurity content RRT0.55 ([2]; 5 days): 0.03% | Impurity content RRT0.66 ([2]; 5 days): 0.19% | Impurity content RRT0.71 ([2]; 5 days): 0.16% | Impurity content RRT0.94 ([2]; 5 days): 0.04% | Impurity content RRT1.02 ([2]; 5 days): 0.31% | Impurity content RRT1.06 ([2]; 5 days): 0.08% | Impurity content RRT1.08 ([2]; 5 days): 0.19% | Impurity content RRT1.15 ([2]; 5 days): 0.03% | Total impurities ([2]; 5 days): 1.03% | Impurity content RRT0.55 ([2]; 11 days): 0.03% | Impurity content RRT0.66 ([2]; 11 days): 0.19% | Impurity content RRT0.71 ([2]; 11 days): 0.16% | Impurity content RRT0.94 ([2]; 11 days): 0.03% | Impurity content RRT1.02 ([2]; 11 days): 0.30% | Impurity content RRT1.06 ([2]; 11 days): 0.08% | Impurity content RRT1.08 ([2]; 11 days): 0.22% | Impurity content RRT1.15 ([2]; 11 days): 0.03% | Total impurities ([2]; 11 days): 1.04% | Impurity content RRT0.55 ([2]; 32 days): 0.05% | Impurity content RRT0.66 ([2]; 32 days): 0.20% | Impurity content RRT0.71 ([2]; 32 days): 0.17% | Impurity content RRT0.94 ([2]; 32 days): 0.05% | Impurity content RRT1.02 ([2]; 32 days): 0.30% | Impurity content RRT1.06 ([2]; 32 days): 0.08% | Impurity content RRT1.08 ([2]; 32 days): 0.21% | Impurity content RRT1.15 ([2]; 32 days): 0.05% | Total impurities ([2]; 32 days): 1.11% | Overall stability (conclusion) ([2]; compared with crystal form E and amorphous form, all four stress tests): the most stable crystal form | solubility ([3]; Acetone): > 40 mg/mL | solubility ([3]; Acetonitrile): > 44 mg/mL | solubility ([3]; Dichloromethane): > 40 mg/mL | solubility ([3]; Ethanol): > 38 mg/mL | solubility ([3]; Ethyl acetate): > 44 mg/mL | solubility ([3]; Isopropanol): > 42 mg/mL | solubility ([3]; Isopropyl acetate): > 38 mg/mL | solubility ([3]; Methanol): > 36 mg/mL | solubility ([3]; Methyl isobutyl ketone): > 40 mg/mL | solubility ([3]; Trichloromethane): > 44 mg/mL

C[C@@H](Nc1ccn2ncc(C3=NOC(C)(C)N3)c2n1)c1cc(F)cc(F)c1F [crystal form E]
Increase of impurity RRT0.66 content ([2]; 32 days): 0.05% | Increase of impurity RRT1.02 content ([2]; 32 days): 0.19% | Increase of impurity RRT1.08 content ([2]; 32 days): 0.23% | Increase of total impurities ([2]; 32 days): 0.51% | Impurity content RRT0.55 ([2]; 0 day): 0.04% | Impurity content RRT0.66 ([2]; 0 day): 0.21% | Impurity content RRT0.71 ([2]; 0 day): 0.14% | Impurity content RRT0.94 ([2]; 0 day): 0.03% | Impurity content RRT1.02 ([2]; 0 day): 0.21% | Impurity content RRT1.06 ([2]; 0 day): 0.07% | Impurity content RRT1.08 ([2]; 0 day): 0.17% | Impurity content RRT1.15 ([2]; 0 day): 0.03% | Total impurities ([2]; 0 day): 0.89% | Impurity content RRT0.55 ([2]; 5 days): 0.03% | Impurity content RRT0.66 ([2]; 5 days): 0.22% | Impurity content RRT0.71 ([2]; 5 days): 0.15% | Impurity content RRT0.94 ([2]; 5 days): 0.03% | Impurity content RRT1.02 ([2]; 5 days): 0.27% | Impurity content RRT1.06 ([2]; 5 days): 0.05% | Impurity content RRT1.08 ([2]; 5 days): 0.24% | Impurity content RRT1.15 ([2]; 5 days): 0.03% | Total impurities ([2]; 5 days): 1.03% | Impurity content RRT0.55 ([2]; 11 days): 0.04% | Impurity content RRT0.66 ([2]; 11 days): 0.22% | Impurity content RRT0.71 ([2]; 11 days): 0.13% | Impurity content RRT0.94 ([2]; 11 days): 0.03% | Impurity content RRT1.02 ([2]; 11 days): 0.30% | Impurity content RRT1.06 ([2]; 11 days): 0.06% | Impurity content RRT1.08 ([2]; 11 days): 0.29% | Impurity content RRT1.15 ([2]; 11 days): 0.03% | Total impurities ([2]; 11 days): 1.10% | Impurity content RRT0.55 ([2]; 32 days): 0.04% | Impurity content RRT0.66 ([2]; 32 days): 0.26% | Impurity content RRT0.71 ([2]; 32 days): 0.14% | Impurity content RRT0.94 ([2]; 32 days): 0.05% | Impurity content RRT1.02 ([2]; 32 days): 0.40% | Impurity content RRT1.06 ([2]; 32 days): 0.05% | Impurity content RRT1.08 ([2]; 32 days): 0.40% | Impurity content RRT1.15 ([2]; 32 days): 0.05% | Total impurities ([2]; 32 days): 1.40% | Solid form stability ([1]; air-dried, open storage at room temperature, approximately 1 day): transformed into the crystal form A
